# According to publication PMC9866191, “Novel 9-Benzylaminoacridine Derivatives as Dual Inhibitors of Phosphodiesterase 5 and Topoisomerase II for the Treatment of Colon Cancer” (Molecules, 2023):
# What was measured:
# Assay in all cases: NCI-60 one-dose screen
# Assay type in all cases: cell-based
# 786-0 = details: Homo sapiens; 786-0, Renal Cancer panel; single dose 10^−5 M; read-out: Growth inhibition %
# A498 = details: Homo sapiens; A498, Renal Cancer panel; single dose 10^−5 M; read-out: Growth inhibition %
# COLO 205 = details: Homo sapiens; COLO 205, Colon Cancer panel; single dose 10^−5 M; read-out: Growth inhibition %
# EKVX = details: Homo sapiens, Non-small cell lung panel, single dose 10^−5 M, read-out: Growth inhibition %
# HCC-2998 = details: Homo sapiens; HCC-2998, Colon Cancer panel; single dose 10^−5 M; read-out: Growth inhibition %
# HCT-116 = details: Homo sapiens, read-out: Growth inhibition %
# HCT-15 = details: Homo sapiens; HCT-15, Colon Cancer panel; single dose 10^−5 M; read-out: Growth inhibition %
# HL-60(TB) = details: Homo sapiens, Leukemia panel, single dose 10^−5 M, read-out: Growth inhibition %
# HOP-62 = details: Homo sapiens; HOP-62, Non-small cell lung panel; single dose 10^−5 M; read-out: Growth inhibition %
# HOP-92 = details: Homo sapiens; HOP-92, Non-small cell lung panel; single dose 10^−5 M; read-out: Growth inhibition %
# HS 578T = details: Homo sapiens, Breast Cancer panel, single dose 10^−5 M, read-out: Growth inhibition %
# M14 = details: Homo sapiens; M14, Melanoma panel; single dose 10^−5 M; read-out: Growth inhibition %
# MALME-3M = details: Homo sapiens, Melanoma panel, single dose 10^−5 M, read-out: Growth inhibition %
# MCF7 = details: Homo sapiens; MCF7, Breast Cancer panel; single dose 10^−5 M; read-out: Growth inhibition %
# MDA-MB-435 = details: Homo sapiens; MDA-MB-435, Melanoma panel; single dose 10^−5 M; read-out: Growth inhibition %
# MOLT-4 = details: Homo sapiens; MOLT-4, Leukemia panel; single dose 10^−5 M; read-out: Growth inhibition %
# NCI-H23 = details: Homo sapiens; NCI-H23, Non-small cell lung panel; single dose 10^−5 M; read-out: Growth inhibition %
# NCI-H522 = details: Homo sapiens; NCI-H522, Non-small cell lung panel; single dose 10^−5 M; read-out: Growth inhibition %
# NCI/ADR-RES = details: Homo sapiens, Ovarian Cancer panel, single dose 10^−5 M, read-out: Growth inhibition %
# OVCAR-3 = details: Homo sapiens; OVCAR-3, Ovarian Cancer panel; single dose 10^−5 M; read-out: Growth inhibition %
# OVCAR-4 = details: Homo sapiens; OVCAR-4, Ovarian Cancer panel; single dose 10^−5 M; read-out: Growth inhibition %
# OVCAR-5 = details: Homo sapiens; OVCAR-5, Ovarian Cancer panel; single dose 10^−5 M; read-out: Growth inhibition %
# OVCAR-8 = details: Homo sapiens; OVCAR-8, Ovarian Cancer panel; single dose 10^−5 M; read-out: Growth inhibition %
# SF-295 = details: Homo sapiens; SF-295, CNS Cancer panel; single dose 10^−5 M; read-out: Growth inhibition %
# SK-MEL-5 = details: Homo sapiens; SK-MEL-5, Melanoma panel; single dose 10^−5 M; read-out: Growth inhibition %
# SN12C = details: Homo sapiens, Renal Cancer panel, single dose 10^−5 M, read-out: Growth inhibition %
# SR = details: Homo sapiens, Leukemia panel, single dose 10^−5 M, read-out: Growth inhibition %
# T-47D = details: Homo sapiens, T47D, Breast Cancer panel, single dose 10^−5 M, read-out: Growth inhibition %
# TK-10 = details: Homo sapiens; TK-10, Renal Cancer panel; single dose 10^−5 M; read-out: Growth inhibition %
# UACC-257 = details: Homo sapiens; UACC-257, Melanoma panel; single dose 10^−5 M; read-out: Growth inhibition %
# UACC-62 = details: Homo sapiens; UACC-62, Melanoma panel; single dose 10^−5 M; read-out: Growth inhibition %
# UO-31 = details: Homo sapiens; UO-31, Renal Cancer panel; single dose 10^−5 M; read-out: Growth inhibition %
Structure (SMILES),inhibition at 10 µM (786-0) [%],inhibition at 10 µM (A498) [%],inhibition at 10 µM (COLO 205) [%],inhibition at 10 µM (EKVX) [%],inhibition at 10 µM (HCC-2998) [%],inhibition at 10 µM (HCT-116) [%],inhibition at 10 µM (HCT-15) [%],inhibition at 10 µM (HOP-62) [%],inhibition at 10 µM (HS 578T) [%],inhibition at 10 µM (M14) [%],inhibition at 10 µM (MALME-3M) [%],inhibition at 10 µM (MCF7) [%],inhibition at 10 µM (MDA-MB-435) [%],inhibition at 10 µM (NCI-H23) [%],inhibition at 10 µM (NCI-H522) [%],inhibition at 10 µM (NCI/ADR-RES) [%],inhibition at 10 µM (OVCAR-3) [%],inhibition at 10 µM (OVCAR-4) [%],inhibition at 10 µM (OVCAR-5) [%],inhibition at 10 µM (OVCAR-8) [%],other results
"c1ccc(CNc2c3ccccc3nc3ccccc23)cc1 [Compound 1, Acridin-9-yl-benzyl-amine]",65.7,83.4,92.7,51.9,61.8,91.6,75.4,54,43.9,67.7,62.6,88,57.2,58.8,43.2,62.4,48.3,56.8,54.3,73.9,inhibition at 10 µM (HL-60(TB)): 56.2%; inhibition at 10 µM (HOP-92): 74.1%; inhibition at 10 µM (MOLT-4): 84.5%; inhibition at 10 µM (SF-295): 62.4%; inhibition at 10 µM (SK-MEL-5): 36.9%; inhibition at 10 µM (SN12C): 62.5%; inhibition at 10 µM (SR): 88.3%; inhibition at 10 µM (T-47D): 62.2%; inhibition at 10 µM (TK-10): 51.3%; inhibition at 10 µM (UACC-257): 47.3%; inhibition at 10 µM (UACC-62): 39%; inhibition at 10 µM (UO-31): 76.2%
"COc1cccc(CNc2c3ccccc3nc3ccccc23)c1OC [Compound 16, Acridin-9-yl-(2,3-dimethoxybenzyl)-amine]",61.2,104,78.5,63.7,61.7,88.2,80.2,48.8,35.7,65.5,49.4,89.9,53.7,67.6,59.9,66.8,34.9,63.4,57,60.8,inhibition at 10 µM (HOP-92): 102%; inhibition at 10 µM (MOLT-4): 82.2%; inhibition at 10 µM (SF-295): 67%; inhibition at 10 µM (SK-MEL-5): 44.2%; inhibition at 10 µM (SN12C): 69.1%; inhibition at 10 µM (SR): 82.5%; inhibition at 10 µM (T-47D): 52.5%; inhibition at 10 µM (TK-10): 40.5%; inhibition at 10 µM (UACC-257): 45.2%; inhibition at 10 µM (UACC-62): 48.7%; inhibition at 10 µM (UO-31): 74.8%
"Fc1ccc(CNc2c3ccccc3nc3ccccc23)cc1F [Compound 22, Acridin-9-yl-(3,4-difluorobenzyl)-amine]",68.5,90.2,83.9,64.5,97.8,91.8,82,48.7,35.2,56.9,49.3,87.1,50.8,64.8,63,72.4,31.1,64.6,55.4,67.9,inhibition at 10 µM (HL-60(TB)): 65.5%; inhibition at 10 µM (HOP-92): 109%; inhibition at 10 µM (SF-295): 70.2%; inhibition at 10 µM (SK-MEL-5): 33.8%; inhibition at 10 µM (SN12C): 70.3%; inhibition at 10 µM (SR): 83%; inhibition at 10 µM (T-47D): 52.1%; inhibition at 10 µM (TK-10): 48.9%; inhibition at 10 µM (UACC-257): 34.9%; inhibition at 10 µM (UACC-62): 40%; inhibition at 10 µM (UO-31): 84.5%
"COc1ccc2nc3ccccc3c(NCc3ccc(Cl)cc3)c2c1 [Compound 29, (4-Chlorobenzyl)-(2-methoxyacridin-9-yl)-amine]",177,91.4,162,66.2,188,93.2,95,57.6,64,186,182,156,75.9,71.7,65.3,77.1,49,75.5,73.5,70.3,inhibition at 10 µM (HL-60(TB)): 164%; inhibition at 10 µM (MOLT-4): 108%; inhibition at 10 µM (SF-295): 74.2%; inhibition at 10 µM (SK-MEL-5): 88.3%; inhibition at 10 µM (SN12C): 77.9%; inhibition at 10 µM (SR): 130%; inhibition at 10 µM (T-47D): 50.7%; inhibition at 10 µM (TK-10): 47.1%; inhibition at 10 µM (UACC-257): 152%; inhibition at 10 µM (UACC-62): 35.2%; inhibition at 10 µM (UO-31): 98.1%
"Cc1ccc2nc3ccccc3c(NCc3ccccc3)c2c1 [Compound 30, Benzyl-(2-methylacridin-9-yl)-amine]",65.7,88.6,91.9,50.4,121,90.6,82,56.5,30.2,54.4,44.8,88.8,41.8,64.2,63,70.2,34,67.2,59.6,66.5,inhibition at 10 µM (HL-60(TB)): 59.4%; inhibition at 10 µM (HOP-92): 107%; inhibition at 10 µM (SF-295): 72%; inhibition at 10 µM (SK-MEL-5): 41.2%; inhibition at 10 µM (SN12C): 74.5%; inhibition at 10 µM (SR): 95.9%; inhibition at 10 µM (T-47D): 36.4%; inhibition at 10 µM (TK-10): 24.7%; inhibition at 10 µM (UACC-257): 43.4%; inhibition at 10 µM (UACC-62): 43.6%; inhibition at 10 µM (UO-31): 81.7%
"Cc1ccc2nc3ccccc3c(NCc3ccc(Cl)cc3)c2c1 [Compound 31, (4-Chlorobenzyl)-(2-methyl-acridin-9-yl)-amine]",65.3,87,153,44.6,179,85.3,85.5,34.8,22.2,117,114,121,29.7,54,45.8,58,29.1,62.5,49.3,47.6,inhibition at 10 µM (HOP-92): 105%; inhibition at 10 µM (MOLT-4): 99.9%; inhibition at 10 µM (SF-295): 56.3%; inhibition at 10 µM (SK-MEL-5): 46%; inhibition at 10 µM (SN12C): 60.5%; inhibition at 10 µM (SR): 109%; inhibition at 10 µM (T-47D): 42.1%; inhibition at 10 µM (TK-10): 17.6%; inhibition at 10 µM (UACC-257): 103%; inhibition at 10 µM (UACC-62): 26%; inhibition at 10 µM (UO-31): 75.5%
